The IC50 is the concentration at which inhibition is half-maximal.

Some results are limits rather than exact numbers.

Assay [1] has as its system IL3000 T. congolense (drug sensitive) strain. In words: In vitro Alamar Blue 72 h drug sensitivity assay for T. congolense. The format is cell-based, Trypanosoma congolense. Particulars: Trypanosoma congolense, 72 h, bloodstream form, 69 h + 3 h Resazurin, 34° C., read-out: IC50: I Org. Growth T. congolense 3 d. An outline of the steps:
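IC50 values derive from 11-point curves averaged over at least three independent runs, with fluorescence read at 536 nm excitation and 588 nm emission. Resazurin was added for a final 3 h after 69 h compound exposure of bloodstream forms (HMI medium, 20% bovine serum, 34° C, 5% CO2).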

Assay [2] deals with T. cruzi amastigote (Td Tomato-modified) in Vero cells. In words: In vitro IC50 measurement of T. cruzi amastigote killing using Td Tomato-modified T. cruzi. Particulars: Trypanosoma cruzi, 72 h, fluorescence, read-out: IC50: I Org. amastigote Growth T. cruzi 3 d. The format is cell-based. An outline of the steps:
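IC50/IC90 came from nonlinear regression of Day 3 minus Day 0 fluorescence (544/612 nm), correcting for input parasites. Final compound concentrations spanned 5 nM–5 uM on Td Tomato T. cruzi-infected Vero cells, 72 h at 37 °C.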

In the case of `Cc1c(C(=O)N[C@H](C(=O)OCC2CCCCC2)C(C)C)ccc2c1B(O)OC2` [Example 6-119, Cyclohexylmethyl (1-hydroxy-7-methyl-1,3-dihydrobenzo[c][1,2]oxaborole-6-carbonyl)-L-valinate], the results for the IC50 in assay [1] and in assay [2] were below 0.5 nM and at most 20 nM, respectively.
On to `Cc1c(C(=O)N[C@H](C(=O)OCc2ccncc2)C(C)C)ccc2c1B(O)OC2` [Example 6-190, Pyridin-4-ylmethyl (1-hydroxy-7-methyl-1,3-dihydrobenzo[c][1,2]oxaborole-6-carbonyl)-L-valinate], for which the half-inhibitory concentration (IC50) in assay [1] is 0.51 to 9.99 nM; in assay [2] it was 21 to 999 nM.
The corresponding values for `Cc1c(C(=O)N[C@H](C(=O)OC2COC2)C(C)C)ccc2c1B(O)OC2` [Example 6-135, Oxetan-3-yl (1-hydroxy-7-methyl-1,3-dihydrobenzo[c][1,2]oxaborole-6-carbonyl)-L-valinate] are below 0.5 nM and 21 to 999 nM.
For `CC(C)[C@H](NC(=O)c1ccc2c(c1)B(O)OC2)C(=O)OCc1ccc(F)cc1` [Example 6-030, 4-Fluorobenzyl (1-hydroxy-1,3-dihydrobenzo[c][1,2]oxaborole-6-carbonyl)-L-valinate] the same measures were 0.51 to 9.99 nM and 21 to 999 nM.
The corresponding values for `Cc1c(C(=O)N[C@H](C(=O)OCc2ccc(C#N)cn2)C(C)C)ccc2c1B(O)OC2` [Example 6-200, (5-cyanopyridin-2-yl)methyl (1-hydroxy-7-methyl-1,3-dihydrobenzo[c][1,2]oxaborole-6-carbonyl)-L-valinate] are below 0.5 nM and at most 20 nM.
As for `Cc1c(C(=O)N[C@H](C(=O)OCc2cccc(CN3CCOCC3)c2)C(C)C)ccc2c1B(O)OC2` [Example 6-083, 3-(Morpholinomethyl)benzyl (1-hydroxy-7-methyl-1,3-dihydrobenzo[c][1,2]oxaborole-6-carbonyl)-L-valinate], the values for the 50% inhibitory concentration (IC50) in assay [1] and in assay [2] were below 0.5 nM and at most 20 nM, respectively.
The corresponding values for `Cc1c(C(=O)N[C@H](C(=O)OCC(C)(C)O)C(C)C)ccc2c1B(O)OC2` [Example 6-211, 2-hydroxy-2-methylpropyl (1-hydroxy-7-methyl-1,3-dihydrobenzo[c][1,2]oxaborole-6-carbonyl)-L-valinate] are 0.51 to 9.99 nM and 21 to 999 nM.
The corresponding values for `Cc1c(C(=O)N[C@H](C(=O)OCc2cncs2)C(C)C)ccc2c1B(O)OC2` [Example 6-120, Thiazol-5-ylmethyl (1-hydroxy-7-methyl-1,3-dihydrobenzo[c][1,2]oxaborole-6-carbonyl)-L-valinate] are 0.51 to 9.99 nM and 21 to 999 nM.
With `Cc1c(C(=O)N[C@H](C(=O)OC[C@H]2COC(C)(C)O2)C(C)C)ccc2c1B(O)OC2` [Example 6-144, ((R)-2,2-Dimethyl-1,3-dioxolan-4-yl)methyl (1-hydroxy-7-methyl-1,3-dihydrobenzo[c][1,2]oxaborole-6-carbonyl)-L-valinate], the IC50 is 0.51 to 9.99 nM in assay [1] and at most 20 nM in assay [2].
As for `CNCc1cccc(COC(=O)[C@@H](NC(=O)c2ccc3c(c2C)B(O)OC3)C(C)C)c1` [Example 6-122, 3-((Methylamino)methyl)benzyl (1-hydroxy-7-methyl-1,3-dihydrobenzo[c][1,2]oxaborole-6-carbonyl)-L-valinate], the figures for the concentration for half-maximal inhibition (IC50) in assay [1] and in assay [2] were 10 to 5000 nM and at least 1000 nM, respectively.
Take `Cc1c(C(=O)N[C@H](C(=O)OCc2ccc(OCCCN3CCCC3)cc2)C(C)C)ccc2c1B(O)OC2` [Example 6-249, 4-(3-(Pyrrolidin-1-yl)propoxy)benzyl(1-hydroxy-7-methyl-1,3-dihydrobenzo[c][1,2]oxaborole-6-carbonyl)-L-valinate]: the values for the concentration for half-maximal inhibition (IC50) in assay [1] and in assay [2] were 0.51 to 9.99 nM and 21 to 999 nM, respectively.
The corresponding values for `Cc1c(C(=O)N[C@H](C(=O)OCCN2CCOC2=O)C(C)C)ccc2c1B(O)OC2` [Example 6-216, 2-(2-oxooxazolidin-3-yl)ethyl (1-hydroxy-7-methyl-1,3-dihydrobenzo[c][1,2]oxaborole-6-carbonyl)-L-valinate] are 10 to 5000 nM and at least 1000 nM.

(Values after US11578087B2, “Oxaborole esters and uses thereof” (priority 2016, dated 2023).)
